Data reported in US12540131B2 (Merck Sharp & Dohme LLC, priority 2019, dated 2026).

Each compound was assayed against GST tagged truncated human mutant G2019S LRRK2 (Homo sapiens (Human), UniProt Q5S007, G2019S) (assay: LRRK2 Km ATP LanthaScreen Assay). Conditions: G2019S LRRK2, 134 μM ATP (Km ATP), mean values.
Assay type: biochemical
Method in brief: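 Enzyme (GST-tagged, truncated) was preincubated with compound for 15 min at RT in 50 mM Tris pH 8.5, 10 mM MgCl2, 0.01% Brij-35, 1 mM EGTA, 2 mM DTT and 0.05 mM orthovanadate. Fluorescein-LRRKtide and 134 μM ATP (Km) were then added for 90 min. EDTA and Tb-anti-pERM antibody stopped the reaction; the TR-FRET 520/495 ratio gave 4-parameter IC50s, reported as mean pIC50.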

Sequence of GST tagged truncated human mutant G2019S LRRK2 (Q5S007 970-2527 G2019S): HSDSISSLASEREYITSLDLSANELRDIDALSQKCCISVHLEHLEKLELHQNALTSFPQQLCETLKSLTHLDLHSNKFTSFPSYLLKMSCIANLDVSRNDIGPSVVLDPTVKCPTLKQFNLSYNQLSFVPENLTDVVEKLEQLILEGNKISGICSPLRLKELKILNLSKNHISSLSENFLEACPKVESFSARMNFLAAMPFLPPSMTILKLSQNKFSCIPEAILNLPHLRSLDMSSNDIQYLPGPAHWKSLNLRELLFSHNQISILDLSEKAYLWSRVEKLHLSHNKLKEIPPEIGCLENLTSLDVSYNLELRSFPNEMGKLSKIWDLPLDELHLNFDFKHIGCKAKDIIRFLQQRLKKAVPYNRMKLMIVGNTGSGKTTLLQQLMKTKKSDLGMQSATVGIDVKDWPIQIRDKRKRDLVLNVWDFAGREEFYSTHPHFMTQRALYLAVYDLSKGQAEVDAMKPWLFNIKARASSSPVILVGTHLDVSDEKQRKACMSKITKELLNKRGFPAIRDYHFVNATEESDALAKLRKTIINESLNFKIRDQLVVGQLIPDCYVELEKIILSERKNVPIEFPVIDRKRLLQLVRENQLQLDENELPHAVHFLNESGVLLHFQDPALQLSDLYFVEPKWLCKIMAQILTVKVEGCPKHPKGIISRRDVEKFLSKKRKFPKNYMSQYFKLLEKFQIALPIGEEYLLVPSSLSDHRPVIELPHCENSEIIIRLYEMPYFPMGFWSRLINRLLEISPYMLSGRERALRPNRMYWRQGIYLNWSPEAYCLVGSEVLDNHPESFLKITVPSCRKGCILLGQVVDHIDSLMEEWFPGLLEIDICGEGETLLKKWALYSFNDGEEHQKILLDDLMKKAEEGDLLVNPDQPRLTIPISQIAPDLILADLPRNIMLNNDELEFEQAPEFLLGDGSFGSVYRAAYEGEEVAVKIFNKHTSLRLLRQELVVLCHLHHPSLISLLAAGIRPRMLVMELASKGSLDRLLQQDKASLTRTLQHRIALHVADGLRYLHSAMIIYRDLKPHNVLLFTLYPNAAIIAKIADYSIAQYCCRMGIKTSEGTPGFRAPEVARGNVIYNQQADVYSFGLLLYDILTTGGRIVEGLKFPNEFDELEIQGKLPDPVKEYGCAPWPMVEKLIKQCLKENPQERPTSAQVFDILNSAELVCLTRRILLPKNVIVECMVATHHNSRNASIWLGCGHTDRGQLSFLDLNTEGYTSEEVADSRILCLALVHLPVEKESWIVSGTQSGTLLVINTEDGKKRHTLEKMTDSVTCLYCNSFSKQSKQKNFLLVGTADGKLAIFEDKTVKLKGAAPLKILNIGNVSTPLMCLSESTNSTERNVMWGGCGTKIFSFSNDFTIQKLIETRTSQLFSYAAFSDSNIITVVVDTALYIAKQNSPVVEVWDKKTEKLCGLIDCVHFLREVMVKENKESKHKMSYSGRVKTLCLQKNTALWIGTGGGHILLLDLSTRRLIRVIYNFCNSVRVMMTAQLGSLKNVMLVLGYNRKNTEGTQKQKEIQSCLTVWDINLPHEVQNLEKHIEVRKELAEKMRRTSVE

Row | SMILES | LRRK2 pIC50
1 | Clc1cc2cnc(Nc3cnn(C4CC4)c3Cl)nc2cc1C1CC2COCC(C1)N2C1COC1 (stereo not drawn) [Ex-4.113, cis or trans 6-chloro-N-(5-chloro-1-cyclopropyl-1H-pyrazol-4-yl)-7-(9-(oxetan-3-yl)-3-oxa-9-azabicyclo[3.3.1]nonan-7-yl)quinazolin-2-amine] | 8.11
2 | CC1CC(c2cc3nc(Nc4cnn(C5CC5)c4Cl)ncc3cc2Cl)CC(C)N1C1COC1 (stereo not drawn) [Ex-4.118, cis or trans 6-chloro-N-(5-chloro-1-cyclopropyl-1H-pyrazol-4-yl)-7-(2,6-dimethyl-1-(oxetan-3-yl)piperidin-4-yl)quinazolin-2-amine] | 8.46
3 | Clc1cc2cnc(Nc3cnn(C4CC4)c3Cl)nc2cc1C1CC2(C1)CN(C1COC1)C2 [Ex-4.119, 6-chloro-N-(5-chloro-1-cyclopropyl-1H-pyrazol-4-yl)-7-(2-(oxetan-3-yl)-2-azaspiro[3.3]heptan-6-yl)quinazolin-2-amine] | 7.96
4 | Cc1c(Nc2ncc3cc(Cl)c(C4CCN(C5CC[C@@H]6C[C@H]56)CC4)cc3n2)cnn1C1CC1 (stereo partly drawn) [Ex-4.172, 7-{1-[(1S,5R)-bicyclo[3.1.0]hexan-2-yl]piperidin-4-yl}-6-chloro-N-(1-cyclopropyl-5-methyl-1H-pyrazol-4-yl)quinazolin-2-amine] | 7.53
5 | Cc1c(Nc2ncc3cc(Cl)c(C4CCN(C[C@@H](O)c5ccccc5)CC4)cc3n2)cnn1C1CC1 [Ex-4.193, (1S)-2-(4-{6-chloro-2-[(1-cyclopropyl-5-methyl-1H-pyrazol-4-yl)amino]quinazolin-7-yl}piperidin-1-yl)-1-phenylethan-1-ol] | 9.04
6 | Cc1c(Nc2ncc3cc(Cl)c(C4CCN(C[C@H](O)c5cccc(Cl)c5)CC4)cc3n2)cnn1C1CC1 [Ex-4.194, (1R)-2-(4-{6-chloro-2-[(1-cyclopropyl-5-methyl-1H-pyrazol-4-yl)amino]quinazolin-7-yl}piperidin-1-yl)-1-(3-chlorophenyl)ethan-1-ol] | 8.28
7 | Cc1c(Nc2ncc3cc(Cl)c(C4CCN(C[C@H](O)c5cccc(F)c5)CC4)cc3n2)cnn1C1CC1 [Ex-4.195, (1R)-2-(4-{6-chloro-2-[(1-cyclopropyl-5-methyl-1H-pyrazol-4-yl)amino]quinazolin-7-yl}piperidin-1-yl)-1-(3-fluorophenyl)ethan-1-ol] | 8.24
8 | Cc1c(Nc2ncc3cc(Cl)c(C4CCN(C[C@@H](O)c5cccc(F)c5)CC4)cc3n2)cnn1C1CC1 [Ex-4.196, (1S)-2-(4-{6-chloro-2-[(1-cyclopropyl-5-methyl-1H-pyrazol-4-yl)amino]quinazolin-7-yl}piperidin-1-yl)-1-(3-fluorophenyl)ethan-1-ol] | 8.87
9 | Cc1c(Nc2ncc3cc(Cl)c(C4CCN(C[C@@H](O)c5cc(F)cc(F)c5)CC4)cc3n2)cnn1C1CC1 [Ex-4.197, (1S)-2-(4-{6-chloro-2-[(1-cyclopropyl-5-methyl-1H-pyrazol-4-yl)amino]quinazolin-7-yl}piperidin-1-yl)-1-(3,5-difluorophenyl)ethan-1-ol] | 8.76
10 | Cc1c(Nc2ncc3cc(Cl)c(C4CCN(C[C@H](O)c5cc(F)cc(F)c5)CC4)cc3n2)cnn1C1CC1 [Ex-4.198, (1R)-2-(4-{6-chloro-2-[(1-cyclopropyl-5-methyl-1H-pyrazol-4-yl)amino]quinazolin-7-yl}piperidin-1-yl)-1-(3,5-difluorophenyl)ethan-1-ol] | 7.88
11 | Cc1c(Nc2ncc3cc(Cl)c(C4CCN(C[C@H](O)c5ccc(F)c(F)c5)CC4)cc3n2)cnn1C1CC1 [Ex-4.199, (1R)-2-(4-{6-chloro-2-[(1-cyclopropyl-5-methyl-1H-pyrazol-4-yl)amino]quinazolin-7-yl}piperidin-1-yl)-1-(3,4-difluorophenyl)ethan-1-ol] | 7.96
